The source of these data is US20040097539A1, “Hsp inductor” (priority 2001, published 2004).

Data set [1] deals with T1, human COX-2 (Homo sapiens, UniProt P35354).
T1 construct: made in house; host or cells: Sf-21 insect cells, recombinant baculovirus BAC-COX2 (pFASTBAC1), microsome fraction
T1 sequence (P35354 18-604): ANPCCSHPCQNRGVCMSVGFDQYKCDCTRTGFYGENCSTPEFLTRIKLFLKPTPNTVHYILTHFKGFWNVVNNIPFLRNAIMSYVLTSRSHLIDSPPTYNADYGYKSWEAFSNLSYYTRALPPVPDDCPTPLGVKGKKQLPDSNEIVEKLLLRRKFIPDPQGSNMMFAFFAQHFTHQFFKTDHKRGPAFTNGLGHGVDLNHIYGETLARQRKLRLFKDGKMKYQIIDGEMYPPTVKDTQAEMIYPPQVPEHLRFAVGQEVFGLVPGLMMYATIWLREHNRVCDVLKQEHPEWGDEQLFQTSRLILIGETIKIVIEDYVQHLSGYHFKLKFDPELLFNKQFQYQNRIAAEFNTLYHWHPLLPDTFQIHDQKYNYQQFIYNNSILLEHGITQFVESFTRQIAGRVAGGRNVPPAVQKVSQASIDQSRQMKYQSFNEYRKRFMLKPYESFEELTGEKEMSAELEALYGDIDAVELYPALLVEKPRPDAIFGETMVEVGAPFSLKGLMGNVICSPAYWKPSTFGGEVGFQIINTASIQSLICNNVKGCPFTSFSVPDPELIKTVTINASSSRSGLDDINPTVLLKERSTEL
Briefly: COX-2 inhibiting activity (chemiluminescence, microsome fractions). Format: biochemical. The settings on record: microsome fractions from COX-2 expressing Sf-21 cells, 37° C. 25 min preincubation, arachidonic acid. As to the method:
A 1.8 kb DNA fragment containing human COX-2 cDNA (Proc. Natl. Acad. Sci. U.S.A., 89 (16), 7384-7388-(1992)) prepared by the PCR method was inserted into plasmid pFASTBAC1 (CIBCOBRAL) to obtain a plasmid pFBCOX2.
Using the plasmid pFBCOX2 and BAC-TO-BAC Baculovirus Expression System (GIBCOBRAL), a virus stock BAC-COX2 of the recombinant baculovirus was prepared.
Sf-21 cells were inoculated in 125 mL of LSf-900 II SFM medium (GIBCOBRAL) at a concentration of 1×10^6 cells/mL, and the medium was incubated at 27° C. for 24 hrs. 0.75 mL of the virus stock BAC-COX2 of the recombinant baculovirus was added, and was incubated for additional 72 hrs. The cells were separated from the medium by centrifugation (3000 rpm, 10 min.), and washed twice with PBS. The cells were suspended in 10 mL of a Lysis buffer (0.1 M Tris-HCl (pH 7.4), 5 mM EDTA), and were treated with a homogenizer (POLYTRON), three times at 20000 rpm for 20 sec. so that the cells were crushed. The supernatant thus obtained after centrifugation (2000 rpm, 10 min.) was further centrifuged (40000 rpm, 45 min.) to obtain a precipitate, which was resuspended in a Lysis buffer (0.1 M Tris-HCl (pH 7.4), 5 mM EDTA), and the suspension was stored at −80° C.
(§1) To a mixture of […] of a reaction buffer previously concentrated 10 times (1 M Tris-HCl (pH 8.0), 50 mM EDTA, 1.0% Tween 20, 50 mM luminol, 100 mM hematin), 20 mL of the microsome fractions (COX-1: 40 mg, COX-2: 20 mg), and […] of distilled water, a sample compound dissolved in DMF (5 mL) was added, and the mixture was left at 37° C. for 25 min. The reaction was started by the addition of 20 mM arachidonic acid ([…]), and chemiluminescence amount during the 10-second period after the addition of arachidonic acid was determined by the use of Lumistar (BMG Lab technologies, GmbH). The inhibition rate was calculated, regarding that the enzyme activity when DMF ([…]) was added was 100%, and the enzyme activity was 0% when 4 mM flurbiprofen (5 mL) was added.

Data set [2] has as its system Male ICR-mice. Nature of the data set: Acetic acid rising method (analgesic activity). Particulars: oral, 30 min before 0.6% acetic acid i.p., rising and stretching counted for 20 min. Format: in vivo. As to the method:
Male ICR-mice (5 weeks old, CLEA Japan) were used (1 group, 10 mice), and a sample was orally administered (0.2 mL/10 g, b.w.). After 30 min., 0.6% acetic acid solution was injected to mice intraperitoneally (0.1 mL/10 g, b.w.), and the mice were immediately transferred into an observation cage made of a transparent acrylic resin. The number of mice rising and stretching during the following period of 20 min. was counted. The repression rate (%) was calculated by comparing the average numbers between the sample groups and the control groups and ID50 value was calculated.

Data set [3] concerns the target T2, human COX-1 (Homo sapiens, UniProt P23219).
T2 construct: made in house; host or cells: Sf-21 insect cells, recombinant baculovirus BAC-COX1 (pFASTBAC1), microsome fraction
Briefly: COX-1 inhibiting activity (chemiluminescence, microsome fractions). Format: biochemical. The settings on record: microsome fractions from COX-1 expressing Sf-21 cells, 37° C. 25 min preincubation, arachidonic acid. How it is done:
A 1.8 kb DNA fragment containing human COX-1 cDNA (FASEB J., 5 (9), 2304-2312 (1991)) prepared by the PCR method was inserted into plasmid pFASTBAC1 (CIBCOBRL) to obtain a plasmid pFBCOX1.
Using the plasmid pFBCOX1 and BAC-TO-BAC Baculovirus Expression System (GIBCOBRL), a virus stock BAC-COX1 of the recombinant baculovirus was prepared.
Sf-21 cells were inoculated in 125 mL of Sf-900 II SFM medium (GIBCOBRL) at a concentration of 1×10^6 cells/mL, and the medium was incubated at 27° C. for 24 hrs. 0.75 mL of the virus stock BAC-COX1 of the recombinant baculovirus was added, and the mixture was incubated for additional 72 hrs. The cells were separated from the medium by centrifugation (3000 rpm, 10 min.), and washed with PBS twice. The cells were suspended in 10 mL of a lysis buffer (0.1 M Tris-HCl (pH 7.4), 5 mM EDTA), and were treated with a homogenizer (POLYTRON) three times at 20000 rpm for 20 seconds so that the cells were crushed. The supernatant obtained after centrifugation (2000 rpm, 10 min.) was further centrifuged (40000 rpm, 45 min.) to give a precipitate, which was resuspended in a Lysis buffer (0.1 M Tris-HCl (pH 7.4), 5 mM EDTA), and the suspension was stored at −80° C.
as §1

Data set [4] concerns Male SD rats. Briefly: Test for gastric mucosa disorder. The class given is in vivo. Particulars: oral 300 mg/kg, stomach examined after 24 hr. As to the method:
Male SD rats (6 rats, 7 weeks old, CLEA Japan) were used. The test compound was orally administered (5 mL/kg, b.w.) to the rats after 24 hr-fasting or without fasting. After 23.5 hrs., the rats were intravenously injected with Evan's Blue (0.5% Evan's Blue/saline, 1 mL/rat) without anesthesia. After 30 min., the rats were laparotomized and stomach was excised. Esophagus was clipped. A 1% formalin solution (8 mL) was infused to the esophagus, and duodenum was clipped. The stomach was immersed in a 1% formalin solution for 10 min. or more, and sectioned along the line from duodenum to greater curvature of the stomach. After washing the stomach, the total length (mm^2) of the site (hemorrhage site: detachment of mucosa-ulcer) stained with Evan's Blue was measured with a counter under a stereomicroscope and recorded.

For data set [5], the system named is HSP27 gene expression. Nature of the data set: HSP27-inducing activity in gastric mucosa (TaqMan PCR). The class given is in vivo. Particulars: rats, oral 30 mg/ml, gastric mucosa 2 hr after administration. How it is done: Compound A (30 mg/ml) and vehicle were orally administered to rats. After 2 hr., stomach was excised from the rats, opened and washed with ice-cooled physiological saline. Gastric mucosa was taken from the stomach using sterilized cover glass, and immediately suspended in ISOGEN (Wako Pure Chemical Industries, Ltd.). Total RNA was prepared from the gastric mucosa according to instructions, and purified by RNAeasy Midi Kit (QIAGEN). Then cDNA was synthesized from the total RNA using TaqMan Gold RT-PCR Kit (Applied Biosystems), and subjected to TaqMan PCR using ABI7700 (Applied Biosystems), based on which the amount of HSP 27 gene expression was determined. Forward primer used was 5′-[…]-3′ (SEQ ID NO:1), Reverse primer used was 5′-[…]-3′ (SEQ ID NO:2), and TaqMan probe used was 5′-[…]-3′ (SEQ ID NO:3) labeled with FAM (6-carboxyfluorescein). Additionally, the amount of GAPDH gene expression was determined using TaqMan Rodent GAPDH Control Reagents VIC probe (Applied Biosystems) and G3PDH cDNA Control probe (CLONTECH), and the amount was employed as an internal control. The amount of HSP27 gene expression is shown by the values calibrated with an amount of internal control (i.e., GAPDH gene) expression (Table 4).

The subject of data set [6] is Male SD rats. Nature of the data set: Carrageenin edema test. Format: in vivo. The settings on record: oral, 1 hr before 1% carrageenin in footpad, foot volume after 2 hr and 3 hr. How it is done:
Male SD rats (6-week-old, CLEA Japan) were used (6 rats per group). The carrageenin edema test was performed in accordance with the method of Winter et al. (Proc. Soc. Exp. Biol. Med., 111, 544-547, 1962). The volume of the footpad of the right hind limb was measured. Then, the test compound was orally administered (1.0 mL/100 g body weight), and immediately thereafter, water was orally administered to 5 mL/rat. Vehicle alone was orally administered to control group. After 1 hr., 0.05 mL of saline containing 1% carrageenin was subcutaneously injected into the footpad of the right hind limb to induce edema. After 2 hr. and 3 hr., the volume of the footpad of the right hind limb was measured. For the effects of the compound, the difference in the volume of the foot before and 2 hr. and 3 hr. after the carrageenin injection was determined, from which inhibitory rate (%) relative to the control group was calculated, and ID30 was determined.

T2 sequence (P23219 24-599): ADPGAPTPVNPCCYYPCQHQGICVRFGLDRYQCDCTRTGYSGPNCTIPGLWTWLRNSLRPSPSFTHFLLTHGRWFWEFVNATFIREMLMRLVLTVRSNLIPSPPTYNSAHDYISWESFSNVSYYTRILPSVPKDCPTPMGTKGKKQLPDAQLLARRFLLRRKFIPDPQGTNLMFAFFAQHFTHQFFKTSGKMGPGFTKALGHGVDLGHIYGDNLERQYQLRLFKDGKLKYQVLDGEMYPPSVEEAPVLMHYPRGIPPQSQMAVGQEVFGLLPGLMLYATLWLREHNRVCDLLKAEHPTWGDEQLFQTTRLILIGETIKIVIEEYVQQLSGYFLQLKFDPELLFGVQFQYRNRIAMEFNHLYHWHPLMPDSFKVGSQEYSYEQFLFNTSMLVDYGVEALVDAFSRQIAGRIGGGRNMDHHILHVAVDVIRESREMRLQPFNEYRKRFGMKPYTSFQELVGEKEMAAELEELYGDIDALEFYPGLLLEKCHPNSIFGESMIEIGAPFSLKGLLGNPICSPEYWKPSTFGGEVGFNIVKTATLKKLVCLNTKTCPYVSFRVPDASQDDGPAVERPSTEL

For `Cc1nn(-c2ccccn2)c2[nH]c3ccc(C(F)(F)F)cc3c(=O)c12` [Compound A, 3-Methyl-1-(2-pyridinyl)-6-(trifluoromethyl)-1,9-dihydro-4H-pyrazolo[3,4-b]quinolin-4-one], the IC50 turned out to be 0.38 µM in data set [1] and 0.45 µM in data set [3]. The compound further gave an ID50 in data set [2] of 0.9 mg/kg. For the same compound, in data set [4] (after 24 hr-fasting), the “Area of lesion (mm^2) (average), Administration after 24 hr-fasting” value was 0.2 mm^2. Further, the “Area of lesion (mm^2) (average), Administration without fasting” value in data set [4] (without fasting) is 0 mm^2. In addition, the “HSP27/GAPDH (x10^4)” value in data set [5] (calibrated with GAPDH expression) stood at 197 ± 20. For the same compound, the “HSP27/GAPDH (% of control)” value in data set [5] (relative to vehicle) was “(277) % of control”. For the same compound, the ID30 in data set [6] is given as 2.2 mg/kg.
`Cc1nn(-c2ccccn2)c2[nH]c3cc(F)c(F)cc3c(=O)c12` [Compound B, 6,7-Difluoro-3-methyl-1-(2-pyridinyl)-1,9-dihydro-4H-pyrazolo[3,4-b]quinolin-4-one]: the values for the IC50 in data set [1] and in data set [3] were 0.295 µM and 0.527 µM, respectively.
In the same order, the values of `O=c1c2cc(Cl)ccc2[nH]c2c1cnn2-c1ccccn1` [Compound D, 6-Chloro-1-(2-pyridinyl)-1,9-dihydro-4H-pyrazolo[3,4-b]quinolin-4-one] are 0.36 µM and 0.6 µM.
For `Cc1nn(-c2ccccn2)c2[nH]c3cc(F)c(Cl)cc3c(=O)c12` [Compound C, 6-Chloro-7-fluoro-3-methyl-1-(2-pyridinyl)-1,9-dihydro-4H-pyrazolo[3,4-b]quinolin-4-one], the IC50 is 0.213 µM in data set [1] and 0.263 µM in data set [3].
